The target of this experiment is T1, RXFP1 (Homo sapiens, UniProt Q9HBX9).
T1 construct: OVCAR5 cells expressing endogenous RXFP1; endogenous in cells; host or cells: OVCAR5
T1 sequence (Q9HBX9 1-757): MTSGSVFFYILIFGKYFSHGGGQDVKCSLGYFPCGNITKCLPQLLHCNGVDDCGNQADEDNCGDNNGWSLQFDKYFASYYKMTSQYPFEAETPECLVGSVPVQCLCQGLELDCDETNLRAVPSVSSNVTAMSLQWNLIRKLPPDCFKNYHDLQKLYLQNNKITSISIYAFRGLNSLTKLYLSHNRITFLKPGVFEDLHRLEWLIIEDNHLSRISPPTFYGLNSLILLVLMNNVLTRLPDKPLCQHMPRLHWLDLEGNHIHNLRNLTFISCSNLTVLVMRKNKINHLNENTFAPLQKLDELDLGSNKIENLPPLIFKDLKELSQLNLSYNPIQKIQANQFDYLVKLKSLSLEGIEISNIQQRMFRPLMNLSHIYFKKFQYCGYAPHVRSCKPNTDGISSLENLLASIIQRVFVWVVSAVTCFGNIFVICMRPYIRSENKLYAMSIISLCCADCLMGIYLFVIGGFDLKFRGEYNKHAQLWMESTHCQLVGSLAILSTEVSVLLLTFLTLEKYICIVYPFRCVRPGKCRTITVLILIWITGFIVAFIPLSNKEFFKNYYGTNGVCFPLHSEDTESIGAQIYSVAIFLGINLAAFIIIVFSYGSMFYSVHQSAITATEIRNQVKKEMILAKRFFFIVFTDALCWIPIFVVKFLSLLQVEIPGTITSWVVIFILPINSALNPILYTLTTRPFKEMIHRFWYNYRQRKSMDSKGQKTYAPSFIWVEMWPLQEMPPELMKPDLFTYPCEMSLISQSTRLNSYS
Put plainly: OVCAR5 cAMP assay (HTRF). It is filed as cell-based. Particulars: for EC50: OVCAR 5 cells expressing endogenous RXFP1, cAMP readout; for Emax: OVCAR 5 cells, maximal cAMP relative to H2-relaxin. In short, it runs like this: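 Peptide agonism measured as intracellular cAMP (HTRF) after 30 min at 37° C in serum-free medium, following 40 min 1 mM IBMX preincubation of OVCAR5 cells. Nonlinear regression gave EC50; Emax % = 100 × compound maximal cAMP / H2-relaxin maximal cAMP.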

Starred links: 1 amine or outer side, 2 acyl side, 3 side chain; linkers in the order of their positions; H or OH if unused. Non-standard residues stand in square brackets, D forms with d. Residues, ends and D or L forms follow the SMILES beside them. Groups on a side chain read outwards from the residue. *: point of attachment. X1 = CCCCCCCCCCCCCCCC(=O)N[C@@H](CCC(=O)N[C@@H](CCC(=O)N[C@@H](CCC(=O)NCCCOCCOCCOCCCNC(=O)CCC(=O)NCCCOCCOCCOCCCNC(=O)CCC(=O)NCCCOCCOCCOCCCN*)C(=O)O)C(=O)O)C(=O)O; X4 = CCCCCCCCCCCCCCCCCC(=O)N[C@@H](CCC(=O)N[C@@H](CCC(=O)N[C@@H](CCC(=O)NCCCOCCOCCOCCCNC(=O)CCC(=O)NCCCOCCOCCOCCCN*)C(=O)O)C(=O)O)C(=O)O; Trp(5-F) = N[C@@H](Cc1c[nH]c2ccc(F)cc12)C(=O)O; γGlu = O=C(O)[C@H](CCC(=O)[*:2])N[*:1]; Palmitoyl = CCCCCCCCCCCCCCCC(=O)*; Suc = O=C(CCC(=O)[*:2])[*:1]; αMeK = C[C@](N)(CCCCN)C(=O)O; AEEA = NCCOCCOCC(=O)O; Aib = CC(C)(N)C(=O)O

As to `CCCCCCCCCCCCCCCC(=O)N[C@@H](CCC(=O)N[C@@H](CCC(=O)N[C@@H](CCC(=O)NCCCOCCOCCOCCCNC(=O)CCC(=O)NCCCOCCOCCOCCCNC(=O)CCC(=O)NCCCOCCOCCOCCCNC(=O)CCC(=O)NCCCC[C@H](NC(=O)CNC(=O)[C@H](CCC(=O)O)NC(=O)[C@@H](NC(=O)C(C)(C)NC(=O)[C@@H](NC(=O)[C@H](CCCCNC(C)=O)NC(=O)[C@H](C)NC(=O)[C@H](CCCNC(=N)N)NC(=O)[C@@H](NC(=O)[C@H](CCCCN)NC(=O)[C@H](CCC(=O)O)NC(=O)[C@H](CCCNC(=N)N)NC(=O)CNC(=O)[C@H](CCC(=O)O)NC(=O)[C@H](CC(C)C)NC(C)=O)C(C)C)[C@@H](C)CC)[C@@H](C)CC)C(=O)N[C@@H](CO)C(=O)N[C@H](C(=O)N[C@@H](Cc1ccccc1)C(=O)N[C@@H](CO)C(=O)N[C@@](C)(CCCCN)C(=O)N[C@@H](CCCNC(=N)N)C(=O)N[C@@H](C)C(=O)N[C@@H](CCCCNC(C)=O)C(N)=O)[C@@H](C)O)C(=O)O)C(=O)O)C(=O)O` [compound 84] (Ac-LEGREKVRAK(Ac)I[Aib]IEGK([Suc-X1])STFS[αMeK]RAK(Ac)-NH2), the response was half-maximal at 0.1 nM (EC50) and the Emax was 95%.
With `CCCCCCCCCCCCCCCCCC(=O)N[C@@H](CCC(=O)N[C@@H](CCC(=O)N[C@@H](CCC(=O)NCCCOCCOCCOCCCNC(=O)CCC(=O)NCCCOCCOCCOCCCNC(=O)CCC(=O)NCCCC[C@H](NC(=O)CNC(=O)[C@H](CCC(=O)O)NC(=O)C(C)(C)NC(=O)C(C)(C)NC(=O)[C@@H](NC(=O)[C@H](CCCCNC(C)=O)NC(=O)[C@H](C)NC(=O)[C@H](CCCNC(=N)N)NC(=O)[C@@H](NC(=O)[C@H](CCCCN)NC(=O)[C@H](CCC(=O)O)NC(=O)[C@H](CCCNC(=N)N)NC(=O)CNC(=O)[C@H](CCC(=O)O)NC(=O)[C@H](CC(C)C)NC(C)=O)C(C)C)[C@@H](C)CC)C(=O)N[C@@H](CO)C(=O)N[C@H](C(=O)N[C@@H](Cc1ccccc1)C(=O)N[C@@H](CO)C(=O)NC(C)(C)C(=O)N[C@@H](CCCNC(=N)N)C(=O)N[C@@H](CCCCN)C(=O)N[C@@H](CCCCNC(C)=O)C(N)=O)[C@@H](C)O)C(=O)O)C(=O)O)C(=O)O` [compound 60] (Ac-LEGREKVRAK(Ac)I[Aib][Aib]EGK([Suc-X4])STFS[Aib]RKK(Ac)-NH2), the EC50 turned out to be 0.15 nM and the maximum response (Emax) came to 95%.
`CCCCCCCCCCCCCCCC(=O)N[C@@H](CCC(=O)N[C@@H](CCC(=O)N[C@@H](CCC(=O)NCCCOCCOCCOCCCNC(=O)CCC(=O)NCCCOCCOCCOCCCNC(=O)CCC(=O)NCCCOCCOCCOCCCNC(=O)CCC(=O)NCCCC[C@H](NC(=O)CNC(=O)[C@H](CCC(=O)O)NC(=O)C(C)(C)NC(=O)C(C)(C)NC(=O)[C@@H](NC(=O)[C@H](CCCCN)NC(=O)[C@H](C)NC(=O)[C@H](CCCNC(=N)N)NC(=O)[C@@H](NC(=O)[C@H](CCCCN)NC(=O)[C@H](CCC(=O)O)NC(=O)[C@H](CCCNC(=N)N)NC(=O)CNC(=O)[C@H](CCC(=O)O)NC(=O)[C@H](CC(C)C)NC(C)=O)C(C)C)[C@@H](C)CC)C(=O)N[C@@H](CO)C(=O)N[C@H](C(=O)N[C@@H](Cc1ccccc1)C(=O)N[C@@H](CO)C(=O)N[C@@](C)(CCCCN)C(=O)N[C@@H](CCCNC(=N)N)C(=O)N[C@@H](C)C(=O)N[C@@H](CCCCNC(C)=O)C(N)=O)[C@@H](C)O)C(=O)O)C(=O)O)C(=O)O` [compound 47] (Ac-LEGREKVRAKI[Aib][Aib]EGK([Suc-X1])STFS[αMeK]RAK(Ac)-NH2) had an EC50 of 0.64 nM and an Emax of 95%.
For `CCCCCCCCCCCCCCCC(=O)N[C@@H](CCC(=O)N[C@@H](CCC(=O)N[C@@H](CCC(=O)NCCOCCOCC(=O)NCCOCCOCC(=O)NCCOCCOCC(=O)NCCOCCOCC(=O)NCCCC[C@H](NC(=O)CNC(=O)[C@H](CCC(=O)O)NC(=O)C(C)(C)NC(=O)C(C)(C)NC(=O)[C@@H](NC(=O)[C@H](CCCCNC(C)=O)NC(=O)[C@H](C)NC(=O)[C@H](CCCNC(=N)N)NC(=O)[C@@H](NC(=O)[C@H](CCCCN)NC(=O)[C@H](CCC(=O)O)NC(=O)[C@H](CCCNC(=N)N)NC(=O)CNC(=O)[C@H](CCC(=O)O)NC(=O)[C@H](CC(C)C)NC(C)=O)C(C)C)[C@@H](C)CC)C(=O)N[C@@H](CO)C(=O)N[C@H](C(=O)N[C@@H](Cc1c[nH]c2ccccc12)C(=O)N[C@@H](CO)C(=O)N[C@@](C)(CCCCN)C(=O)N[C@@H](CCCNC(=N)N)C(=O)N[C@@H](C)C(=O)N[C@@H](CCCCNC(C)=O)C(N)=O)[C@@H](C)O)C(=O)O)C(=O)O)C(=O)O` [compound 42] (Ac-LEGREKVRAK(Ac)I[Aib][Aib]EGK([AEEA-AEEA-AEEA-AEEA-γGlu-γGlu-γGlu-Palmitoyl])STWS[αMeK]RAK(Ac)-NH2) the same measures were 1.5 nM and 84%.
Consider `CCCCCCCCCCCCCCCC(=O)N[C@@H](CCC(=O)N[C@@H](CCC(=O)N[C@@H](CCC(=O)NCCCOCCOCCOCCCNC(=O)CCC(=O)NCCCOCCOCCOCCCNC(=O)CCC(=O)NCCCOCCOCCOCCCNC(=O)CCC(=O)NCCCC[C@H](NC(=O)CNC(=O)[C@H](CCC(=O)O)NC(=O)C(C)(C)NC(=O)C(C)(C)NC(=O)[C@@H](NC(=O)[C@H](CCCCNC(C)=O)NC(=O)[C@H](C)NC(=O)[C@H](CCCNC(=N)N)NC(=O)[C@@H](NC(=O)[C@H](CCCNC(=N)N)NC(=O)[C@H](CCC(=O)O)NC(=O)[C@H](CCCNC(=N)N)NC(=O)CNC(=O)[C@H](CCC(=O)O)NC(=O)[C@H](CC(C)C)NC(C)=O)C(C)C)[C@@H](C)CC)C(=O)N[C@@H](CO)C(=O)N[C@H](C(=O)N[C@@H](Cc1c[nH]c2ccc(F)cc12)C(=O)N[C@@H](CO)C(=O)NC(C)(C)C(=O)N[C@@H](CCCNC(=N)N)C(=O)N[C@@H](CCCNC(=N)N)C(=O)N[C@@H](CCCCNC(C)=O)C(N)=O)[C@@H](C)O)C(=O)O)C(=O)O)C(=O)O` [compound 92] (Ac-LEGRERVRAK(Ac)I[Aib][Aib]EGK([Suc-X1])ST[Trp(5-F)]S[Aib]RRK(Ac)-NH2), for which a half-maximal effect (EC50) was put at 0.1 nM and the maximal effect (Emax) is 99%.
For `CCCCCCCCCCCCCCCC(=O)N[C@@H](CCC(=O)N[C@@H](CCC(=O)N[C@@H](CCC(=O)NCCCOCCOCCOCCCNC(=O)CCC(=O)NCCCOCCOCCOCCCNC(=O)CCC(=O)NCCCOCCOCCOCCCNC(=O)CCC(=O)NCCCC[C@H](NC(=O)CNC(=O)[C@H](CCC(=O)O)NC(=O)C(C)(C)NC(=O)C(C)(C)NC(=O)[C@@H](NC(=O)[C@H](CCCCNC(C)=O)NC(=O)[C@H](C)NC(=O)[C@H](CCCNC(=N)N)NC(=O)[C@@H](NC(=O)[C@H](CCCCN)NC(=O)[C@H](CCC(=O)O)NC(=O)[C@H](CCCNC(=N)N)NC(=O)CNC(=O)[C@H](CCC(=O)O)NC(=O)[C@H](CC(C)C)NC(C)=O)C(C)C)[C@@H](C)CC)C(=O)N[C@@H](CO)C(=O)N[C@H](C(=O)N[C@@H](Cc1c[nH]c2ccccc12)C(=O)N[C@@H](CO)C(=O)N[C@@](C)(CCCCN)C(=O)N[C@@H](CCCNC(=N)N)C(=O)N[C@@H](C)C(=O)N[C@@H](CCCCNC(C)=O)C(N)=O)[C@@H](C)O)C(=O)O)C(=O)O)C(=O)O` [compound 11] (Ac-LEGREKVRAK(Ac)I[Aib][Aib]EGK([Suc-X1])STWS[αMeK]RAK(Ac)-NH2), the midpoint of the response, the EC50, lay at 0.83 nM and the Emax came to 93%.
In the case of `CCCCCCCCCCCCCCCC(=O)N[C@@H](CCC(=O)N[C@@H](CCC(=O)N[C@@H](CCC(=O)NCCCOCCOCCOCCCNC(=O)CCC(=O)NCCCOCCOCCOCCCNC(=O)CCC(=O)NCCCOCCOCCOCCCNC(=O)CCC(=O)NCCCC[C@H](NC(=O)CNC(=O)[C@H](CCC(=O)O)NC(=O)C(C)(C)NC(=O)C(C)(C)NC(=O)[C@@H](NC(=O)[C@H](CCCCNC(C)=O)NC(=O)[C@H](C)NC(=O)[C@H](CCCNC(=N)N)NC(=O)[C@@H](NC(=O)[C@H](CCCCN)NC(=O)[C@H](CCC(=O)O)NC(=O)[C@H](CCCNC(=N)N)NC(=O)CNC(=O)[C@H](CCC(=O)O)NC(=O)[C@H](CC(C)C)NC(C)=O)C(C)C)[C@@H](C)CC)C(=O)N[C@@H](CO)C(=O)N[C@H](C(=O)N[C@@H](Cc1c[nH]c2ccccc12)C(=O)N[C@@H](CO)C(=O)NC(C)(C)C(=O)N[C@@H](CCCNC(=N)N)C(=O)N[C@@H](CCCCN)C(=O)N[C@@H](CCCCNC(C)=O)C(N)=O)[C@@H](C)O)C(=O)O)C(=O)O)C(=O)O` [compound 1] (Ac-LEGREKVRAK(Ac)I[Aib][Aib]EGK([Suc-X1])STWS[Aib]RKK(Ac)-NH2), the EC50 stood at 1.5 nM and the Emax is 99%.
